Data on 27 molecules can be found in US4616086A, “Piperazine-substituted aryl and aralkyl carboxylic acids useful for treating infirmaties caused by excess lipids or thrombocyte” (Boehringer Mannheim GmbH, priority 1981, dated 1986).

For orientation: inhibition means the relative decrease from the control value, in per cent.

Read-outs that look alike come from different tables or passages of the source.

Data set [1] concerns cholesterol and triglyceride levels in the serum. Kind of data set: Lowering of Lipid Levels (cholesterol and triglyceride levels in the serum of male rats of normal metabolism, 7 days). It is filed as in vivo. As to conditions: 100 mg/kg/d for 7 days in methyl cellulose suspension, serum 3 hours after last dose, in comparison to control; for inhibition in vivo at 100 mg/kg/day: Rattus norvegicus, po. As for the experimental part:
In each case, 10 male rats of normal metabolism were administered the test substance for 7 days in a dosage of 100 mg/kg/d in methyl cellulose suspension. At the end of the experiment, 3 hours after the last does was administered, the cholesterol and triglyceride levels in the serum were determined. The changes are given in Table I expressed as a percentage in comparison to control for a representative selection of compounds.

For the next data set, the system named is thrombocyte aggregation. Description: Inhibition of Aggregation (Born test, adrenalin-induced thrombocyte aggregation, platelet-rich plasma). It is filed as cell-based, human. Conditions: for % of inhibition of thrombocyte aggregation: human PRP, adrenalin 5×10^-6 mol/l, 2nd phase, test concentration 14^-4 mol/l [sic]. As for the experimental part:
Venous blood from subjects of normal metabolism is mixed with sodium citrate (9:1). The erythrocytes are settled by centrifugation at 150 g. The thrombocytes are concentrated in the supernatant. This supernatant is referred to as platelet-rich plasma (PRP). An aliquot of the PRP is placed in the cell of an aggregometer (Universal Aggregometer mfd. by Braun Melsungen) and there stirred by means of a small magnet. The substance to be tested is added in an aqueous solution (pH approx. 7). Changes in the light transmission in the suspension are continuously registered by a recorder. After spontaneous aggregation ends, aggregation is triggered by the addition of adrenalin (end concentration 5×10^-6 mol/l). Larger clumps of thrombocytes form and this causes the transmission of light through the suspension to increase.
The adrenalin-induced aggregation takes place in two phases, i.e., the light transmission first increases, then briefly remains steady, and then again increases. Only the second phase of the aggregation can be influenced by aggregation inhibitors.
With the same PRP, aggregation is induced with adrenalin after addition of the test substance and the course of the aggregation is registered with the recorder. The angle of the 2nd phase from the horizontal is again determined and the ratio of the two angles gives the percentage of inhibition of the 2nd phase of the thrombocyte aggregation.
All substances were tested in a concentration of 14^-4 mol/l in determining their aggregation inhibiting action.

Where [2] appears, read: read-out: % of reduction of cholesterol.
Where [3] appears, read: read-out: % of reduction of triglycerides.
Setting [4] is: Homo sapiens, read-out: inhibition of the 2nd phase of thrombocyte aggregation (standard).

As for `O=C(O)c1ccc(CCN2CCN(c3ccc(Oc4ccccc4)cc3)CC2)cc1` [33 r], the inhibition in vivo at 100 mg/kg/day in data set [1] (setting [2]) came to 33%; in data set [1] (setting [3]), 15%.
The matching figures for `CS(=O)(=O)N1CCN(CCc2ccc(C(=O)O)cc2)CC1` [33 m]: 20% and 30%.
Consider `CC(Cc1ccc(Cl)cc1)CN1CCN(CCc2ccc(C(=O)O)cc2)CC1` (centres unmarked) [33 u], for which the figures for the inhibition in vivo at 100 mg/kg/day in data set [1] (setting [2]) and in data set [1] (setting [3]) were 28% and 32%, respectively.
Turning to `O=C(O)c1ccc(CCN2CCN(Cc3ccc(Cl)cc3)CC2)cc1` [33 b], the inhibition in vivo at 100 mg/kg/day in data set [1] (setting [2]) is 40%; in data set [1] (setting [3]) it was 30%. Moreover, the “% of inhibition of thrombocyte aggregation” value with thrombocyte aggregation is given as 19%.
Regarding `O=C(O)Cc1ccc(CCN2CCN(S(=O)(=O)c3ccc(Cl)cc3)CC2)cc1` [49 e], the inhibition in vivo at 100 mg/kg/day stood at 41% in data set [1] (setting [2]) and 8% in data set [1] (setting [3]).
As to `O=C(O)c1ccc(CCN2CCN(CCOc3ccccc3)CC2)cc1` [33 c], the inhibition in vivo at 100 mg/kg/day in data set [1] (setting [2]) came to 13%; in data set [1] (setting [3]), 11%. In addition, in the data set on thrombocyte aggregation, the “% of inhibition of thrombocyte aggregation” value turned out to be 40%.
Consider `CC(C)(C)c1cc(C=CC(=O)N2CCN(CCc3ccc(CC(=O)O)cc3)CC2)cc(C(C)(C)C)c1O` [50 f], for which the inhibition in vivo at 100 mg/kg/day in data set [1] (setting [2]) came to 40%; in data set [1] (setting [3]) it was 16%.
Regarding `O=C(O)c1ccc(CCN2CCN(Cc3ccccc3Cl)CC2)cc1` [34 i], in data set [1], the “% of reduction of cholesterol” value amounted to 21% and the “% of reduction of triglycerides” value came out at 10%. Further, the “% of inhibition of thrombocyte aggregation” value in the data set on thrombocyte aggregation is 100%.
As to `CCCCCCCCCCCCCCCCN1CCN(c2ccc(CCC(=O)O)cc2)CC1` [Example 58, 3-[4-(1-n-Hexadecylpiperazin-4-yl)-phenyl]-propionic acid], the figures for the inhibition in vivo at 100 mg/kg/day in data set [1] (setting [2]) and in data set [1] (setting [3]) were 17% and 6%, respectively.
In the case of `O=C(O)c1ccc(CCN2CCN(C(=O)c3ccc(Cl)cc3)CC2)cc1` [33 i], in data set [1], the “% of reduction of cholesterol” value is on record as 41% and the “% of reduction of triglycerides” value is listed as 24%.
`CC(C)(C)c1cc(CCC(=O)N2CCN(CCc3ccc(C(=O)O)cc3)CC2)cc(C(C)(C)C)c1O` [33 l]: in data set [1], the “% of reduction of cholesterol” value is listed as 38% and the “% of reduction of triglycerides” value was 22%.
Turning to `CC(CN1CCN(c2ccc(C=CC(=O)O)cc2)CC1)Oc1ccccc1` (centres unmarked) [65 d1], the inhibition in vivo at 100 mg/kg/day in data set [1] (setting [2]) came to 5%; in data set [1] (setting [3]), 20%.
For the molecule `CC(=Cc1ccc(CCN2CCN(C(=O)c3ccc(Cl)cc3)CC2)cc1)C(=O)O` [67 d1], the inhibition in vivo at 100 mg/kg/day in data set [1] (setting [2]) is 37%; in data set [1] (setting [3]) it was 9%.
For the molecule `CCOC(=O)c1ccc(N2CCNCC2)cc1` [Example 1, Ethyl 4-(piperazin-1-yl)-benzoate], the hygroscopicity entry (hydrochloride) was “hydroscopic”.
Take `O=C(O)c1ccc(CCN2CCN(CC=Cc3ccc(Cl)cc3)CC2)cc1` [34 c]: the inhibition in vivo at 100 mg/kg/day in data set [1] (setting [2]) is 30%; in data set [1] (setting [3]), 40%. The “% of inhibition of thrombocyte aggregation” value in the data set with thrombocyte aggregation was determined as 7%.
For the molecule `CCOC(=O)c1ccc(CCCN2CCN(C(=O)c3ccc(Cl)cc3)CC2)cc1` [55 b], the inhibition in vivo at 100 mg/kg/day in data set [1] (setting [2]) amounted to 33%; in data set [1] (setting [3]), 3%.
For the molecule `O=C(O)c1ccc(CCN2CCN(S(=O)(=O)c3ccc(Cl)cc3)CC2)cc1` [33 o], the inhibition in vivo at 100 mg/kg/day stood at 35% in data set [1] (setting [2]) and 13% in data set [1] (setting [3]).
As for `CC(C)(C)c1cc(CCN2CCN(c3ccc(CC(=O)O)cc3)CC2)cc(C(C)(C)C)c1O` [50 j], the inhibition in vivo at 100 mg/kg/day in data set [1] (setting [2]) was 40%; in data set [1] (setting [3]), 0%.
`CCCCOC(=O)CCc1ccc(N2CCN(C(=O)C=Cc3ccc(Cl)cc3)CC2)cc1` [Example 55, n-Butyl 3-{4-[1-(4-chlorocinnamoyl)-piperazin-4-yl]-phenyl}-propionate]: the light sensitivity entry was “light-sensitive”.
With `COc1ccc(OC(C)CN2CCN(CCc3ccc(C(=O)O)cc3)CC2)cc1` (centres unmarked) [33 f], in data set [1], the “% of reduction of cholesterol” value was found to be 37% and the “% of reduction of triglycerides” value is 42%.
On to `CC(CN1CCN(CCc2ccc(C(=O)O)cc2)CC1)Oc1ccccc1` (centres unmarked) [33 d], for which, in data set [1], the “% of reduction of cholesterol” value stood at 43% and the “% of reduction of triglycerides” value was 41%. Moreover, the “% of inhibition of thrombocyte aggregation” value with thrombocyte aggregation is 6%.
As to `O=C(O)c1ccc(CCN2CCN(CC=Cc3ccc([N+](=O)[O-])cc3)CC2)cc1` [Example 34o, 4-{2-[1-(4-nitrocinnamyl)-piperazin-4-yl]-ethyl}-benzoic acid], the light sensitivity result was “Light sensitive”.
For `O=C(O)Cc1ccc(CCN2CCN(S(=O)(=O)c3ccccc3)CC2)cc1` [50 g], the inhibition in vivo at 100 mg/kg/day was 28% in data set [1] (setting [2]) and 9% in data set [1] (setting [3]).
In the case of `CC(CN1CCN(CCc2ccc(C(=O)O)cc2)CC1)Oc1ccc([N+](=O)[O-])cc1` (centres unmarked) [34 s], the inhibition in vivo at 100 mg/kg/day in data set [1] (setting [2]) worked out at 47%; in data set [1] (setting [3]), 21%.
Consider `CC(=O)Oc1ccccc1C(=O)O` [acetylsalicylic acid, reference compound], for which, in the data set on thrombocyte aggregation (setting [4]), the inhibition at 50 µM was determined as 0% and the inhibition at 100 µM came to 100%.
For `O=C(O)c1ccc(N2CCN(CCCc3ccccc3)CC2)cc1` [13 i], the results for the inhibition in vivo at 100 mg/kg/day in data set [1] (setting [2]) and in data set [1] (setting [3]) were 38% and 15%, respectively.
For `O=C(O)Cc1ccc(N2CCN(S(=O)(=O)c3ccccc3)CC2)cc1` [50 o], the inhibition in vivo at 100 mg/kg/day in data set [1] (setting [2]) came to 26%; in data set [1] (setting [3]) it was 14%.
